Measured values as given in US8703698B2, “Compositions and methods for treating atherosclerosis” (The University of Chicago, priority 2003, dated 2014).

B1: GFFSFVHEAFQGAGDMWRAYTDMKEANWKNSDKYFHARGNYDAAQRGPGGVWAAEKISD GREAFQEFFGRGHEDTIADQEANRHGRSGKDPNYYRPPGLPDKY (protein, listed as Mus musculis)
chain: GFFSFVHEAFQGAGDMWRAYTDMKEANWKNSDKYFHARGNYDAAQRGPGGVWAAEKISDGREAFQEFFGRGHEDTIADQEANRHGRSGKDPNYYRPPGLPDKY
notes: full length murine serum amyloid A isoform 2.1 purified from acute phase plasma

How the values were obtained:
THP-1 cells = test: Cholesterol efflux from cholesterol-laden human THP-1 cells; type: cell-based; settings: liposomal formulations; cholesterol-laden THP-1 cells differentiated with phorbol myristate acetate
Protocol: These monocytes were differentiated into macrophages with phorbol myristate acetate (100 nM). In these experiments, cholesterol-laden human THP-1 cells were exposed to liposomal formulations comprising a peptide corresponding to amino acids 1-20 of murine SAA2.1 (SEQ ID NO:1), a peptide corresponding to amino acids 74-103 of murine SAA2.1 (SEQ ID NO:4), a peptide corresponding to amino acids 1-20 of murine SAA1.1 plus an arginine at the N-terminus (SEQ ID NO:7), or a peptide corresponding to amino acids 1-20 of murine SAA2.1 (SEQ ID NO:1) and a peptide corresponding to amino acids 74-103 (SEQ ID NO:4) of murine SAA2.1. Results from these experiments are depicted in FIG. 4. […] Studies were carried out to determine whether murine SAA2.1 increases cholesterol export from a human derived monocytic cell line, THP-1 (obtained from American Type Culture Collection, Manassas, Va.; ATCC#TIB-202). Human monocytes were cultured in T-75 flasks with 30 ml RPMI 1640 medium containing 2 mM L-glutamine, 4.5 g/L glucose, 10 mM HEPES, 1.0 mM […] and supplemented with 0.05 mM 2-mercaptoethanol and 10% fetal bovine serum. Subsequently, five million cells were placed in each well of a 6-well tissue culture plate. The monocytes were differentiated into macrophages by treatment with phorbol myristate acetate (100 nM). THP-1 macrophages were enriched with cholesterol by incubating with red blood cells membrane fragments (175 μg as cholesterol) that had been previously labelled with 0.5 μCi/mL[^3H]-cholesterol at 37° C. for 6 hours in 0.2% bovine serum albumin, followed by an overnight equilibration period. Cells were washed four times with PBS/BSA prior to efflux studies. Cells were then incubated at 37° C. with 2 mL RPMI-BSA containing 5% LPDS and 50 μg/mL of either native HDL, SAA-HDL, liposomes containing 2 μmoles of apoA-I, SAA1.1 or 2.1, or liposomes containing 0.5 μmoles synthetic peptides corresponding to amino acid residues 1-20 (SEQ ID NO:1), 21-50 (SEQ ID NO:2), 51-80 (SEQ ID NO:3) or 74-103 (SEQ ID NO:4) of murine SAA2.1. The efflux media were collected at 0, 1, 2, 4, 8, 16 and 24 hours, centrifuged to remove cell debris, and then used to measure the exported counts. […] A portion of the cells was lysed in 0.1N NaOH to estimate both the remaining radioactivity and the cellular protein content. Cellular lipids were extracted from the remaining portion of the cells and analyzed by thin-layer chromatography as described by Mendez et al. (J. Clin. Invest. 1994 94:1698-1705) and Oram et al. (Arterioscler. Thromb. 1991 11:403-414). The radioactivity in appropriate spots was measured to determine total cellular cholesterol counts. Efflux of radioactive label to the medium was calculated as the percentage of total counts (cell+medium counts) in each well.

[1] = test system: cholesterol ester hydrolase; test: Rate of hydrolysis of cholesteryl ester in cholesterol-laden J774 cells (cholesterol ester hydrolase activity); type: cell-based, murine

Row | Molecule | cholesterol efflux, time course (FIG. 4) (THP-1 cells) | increase in cholesterol ester hydrolase activity ([1]; liposomes containing 0.5 μl synthetic peptide, cholesterol-laden J774 cells, Sandoz 58-035 present, 0 to 24 hours) | rate of hydrolysis of [14C]-labeled cholesteryl oleate versus protein-free liposomes ([1]; liposomes containing 0.5 μl synthetic peptide, J774 cells, Sandoz 58-035 present) | cholesterol ester hydrolase activity in intact cholesterol-laden macrophages ([1]; lipoproteins or protein liposomes, tissue culture)
1 | DTIADQEANRHGRSGKDPNYYRPPGLPDKY [SEQ ID NO:4, synthetic peptide, residues 74-103 of murine SAA2.1] | demonstrated to increase cholesterol efflux | 3 fold | – | –
2 | GFFSFVHEAFQGAGDMWRAY [SEQ ID NO:1, synthetic peptide, residues 1-20 of murine SAA2.1] | demonstrated to increase cholesterol efflux | – | no significant differences | –
3 | B1 | – | – | – | enhancement of cholesterol ester hydrolase activity
